From patent US20250179078A1, “INHIBITORS OF NLRP3” (PTC THERAPEUTICS, INC., priority 2022, published 2025)

target: T1, NLRP3 (Homo sapiens, UniProt Q96P20); assay: IL-1β Secretion Assay (NLRP3-dependent IL1β secretion in THP1 cells); assay type: cell-based; conditions: PMA-differentiated THP-1 cells; compounds incubated 20 h; 2.5 μM Nigericin 3 h; HTRF IL-1β readout; read-out: IC50 IL-1β Inhibition
T1 construct: host or cells: THP-1 cells differentiated with PMA
In short: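 THP-1 cells differentiated with 100 ng/mL PMA for 24 h, then given compound (7-point 3-fold series, 1:200 from DMSO) for 20 h in RPMI+5% FBS. NLRP3 activated with 2.5 μM nigericin for 3 h; secreted IL-1β measured by HTRF; IC50 from logistic fit of % inhibition.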

T1 sequence (Q96P20 whole entry): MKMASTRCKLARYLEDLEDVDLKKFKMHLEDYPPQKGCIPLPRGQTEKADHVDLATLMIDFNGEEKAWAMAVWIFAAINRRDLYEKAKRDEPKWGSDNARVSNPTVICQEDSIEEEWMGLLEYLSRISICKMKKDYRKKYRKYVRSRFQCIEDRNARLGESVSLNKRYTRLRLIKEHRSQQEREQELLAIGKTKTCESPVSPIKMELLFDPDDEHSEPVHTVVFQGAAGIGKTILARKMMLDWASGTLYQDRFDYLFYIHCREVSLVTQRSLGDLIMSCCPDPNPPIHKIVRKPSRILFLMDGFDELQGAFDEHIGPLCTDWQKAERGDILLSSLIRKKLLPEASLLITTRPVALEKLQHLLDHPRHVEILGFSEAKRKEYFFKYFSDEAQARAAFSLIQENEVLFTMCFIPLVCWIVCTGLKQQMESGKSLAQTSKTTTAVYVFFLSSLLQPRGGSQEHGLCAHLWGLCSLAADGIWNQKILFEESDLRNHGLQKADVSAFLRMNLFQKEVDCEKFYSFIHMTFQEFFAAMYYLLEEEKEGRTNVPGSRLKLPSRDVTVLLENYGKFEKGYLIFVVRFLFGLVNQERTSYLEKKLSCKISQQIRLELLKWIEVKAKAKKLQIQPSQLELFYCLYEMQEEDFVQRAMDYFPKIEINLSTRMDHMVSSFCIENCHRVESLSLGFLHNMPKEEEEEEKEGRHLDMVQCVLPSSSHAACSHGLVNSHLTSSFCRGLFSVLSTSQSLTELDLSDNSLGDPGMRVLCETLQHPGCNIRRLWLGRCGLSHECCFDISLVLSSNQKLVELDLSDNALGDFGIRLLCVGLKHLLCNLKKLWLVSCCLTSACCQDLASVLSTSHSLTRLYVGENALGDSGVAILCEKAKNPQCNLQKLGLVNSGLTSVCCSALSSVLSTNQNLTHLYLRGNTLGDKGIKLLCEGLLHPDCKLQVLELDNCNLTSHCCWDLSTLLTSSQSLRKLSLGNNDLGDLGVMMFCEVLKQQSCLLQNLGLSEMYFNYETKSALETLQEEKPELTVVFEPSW

SMILES	IC50
CC(C)CN1CCC[C@@H](Nc2nnc(-c3ccc(C(F)(F)F)cc3C(F)(F)F)c3cccn23)C1 [Compound 10, 1-[2,4-bis(trifluoromethyl)phenyl]-N-[(3R)-1-(2-methylpropyl)piperidin-3-yl]pyrrolo[1,2-d][1,2,4]triazin-4-amine]	1 to 10 nM
CN1CCC[C@@H](Nc2nnc(-c3ccc(C(F)(F)F)cc3C(F)(F)F)c3c(F)ccn23)C1 [Compound 28, 1-[2,4-bis(trifluoromethyl)phenyl]-8-fluoro-N-[(3R)-1-methylpiperidin-3-yl]pyrrolo[1,2-d][1,2,4]triazin-4-amine]	1 to 10 nM
COc1ccc(-c2nnc(NC3CCNC3=O)n3cccc23)c(OC(F)F)c1 (centres unmarked) [Compound 174, 3-({1-[2-(difluoromethoxy)-4-methoxyphenyl]pyrrolo[1,2-d][1,2,4]triazin-4-yl}amino)pyrrolidin-2-one]	10 to 100 nM
Cc1ccc(-c2nnc(N[C@H]3C[C@@](C)(O)C3)n3cccc23)c(CC(F)(F)F)c1 [Compound 158, (1s,3s)-1-methyl-3-({1-[4-methyl-2-(2,2,2-trifluoroethyl)phenyl]pyrrolo[1,2-d][1,2,4]triazin-4-yl}amino)cyclobutan-1-ol]	1 to 10 nM
COc1ccc(-c2nnc(N[C@@H]3C[C@@H](F)CN(C)C3)n3ccc(F)c23)c(OC(F)(F)F)c1 [Compound 52, 8-fluoro-N-[(3R,5R)-5-fluoro-1-methylpiperidin-3-yl]-1-[4-methoxy-2-(trifluoromethoxy)phenyl]pyrrolo[1,2-d][1,2,4]triazin-4-amine]	1 to 10 nM
COc1ccc(-c2nnc(NC3CCNC3=O)n3cccc23)c(CC(F)(F)F)c1 (centres unmarked) [Compound 139, 3-({1-[4-methoxy-2-(2,2,2-trifluoroethyl)phenyl]pyrrolo[1,2-d][1,2,4]triazin-4-yl}amino)pyrrolidin-2-one]	1 to 10 nM
COc1ccc(-c2nnc(N[C@H]3CCCC[C@@H]3O)n3cc(C)cc23)c(OC(F)(F)F)c1 [Compound 133, (1S,2S)-2-({1-[4-methoxy-2-(trifluoromethoxy)phenyl]-7-methylpyrrolo[1,2-d][1,2,4]triazin-4-yl}amino)cyclohexan-1-ol]	10 to 100 nM
Cc1cc2c(-c3ccc(C(F)(F)F)cc3C(F)(F)F)nnc(N[C@H]3C[C@@](C)(O)C3)n2c1 [Compound 107, (1s,3s)-3-({1-[2,4-bis(trifluoromethyl)phenyl]-7-methylpyrrolo[1,2-d][1,2,4]triazin-4-yl}amino)-1-methylcyclobutan-1-ol]	10 to 100 nM
CCN1C[C@H](F)C[C@@H](Nc2nnc(-c3ccc(Br)cc3OC(F)F)c3cncn23)C1 [Compound 196, 1-[4-bromo-2-(difluoromethoxy)phenyl]-N-[(3R,5R)-1-ethyl-5-fluoropiperidin-3-yl]imidazo[1,5-d][1,2,4]triazin-4-amine]	< 1 nM
C[C@H](O)CNc1nnc(-c2ccc(C(F)(F)F)cc2OC(F)F)c2c(F)ccn12 [Compound 16, (2S)-1-({1-[2-(difluoromethoxy)-4-(trifluoromethyl)phenyl]-8-fluoropyrrolo[1,2-d][1,2,4]triazin-4-yl}amino)propan-2-ol]	10 to 100 nM
COc1ccc(-c2nnc(N[C@H]3C[C@@](C)(O)C3)n3cccc23)c(C2CC2)c1 [Compound 104, (1s,3s)-3-{[1-(2-cyclopropyl-4-methoxyphenyl)pyrrolo[1,2-d][1,2,4]triazin-4-yl]amino}-1-methylcyclobutan-1-ol]	10 to 100 nM
O[C@H]1CCCC[C@@H]1Nc1nnc(-c2ccc(C(F)(F)F)cc2CC(F)(F)F)c2cccn12 [Compound 111, (1S,2S)-2-({1-[2-(2,2,2-trifluoroethyl)-4-(trifluoromethyl)phenyl]pyrrolo[1,2-d][1,2,4]triazin-4-yl}amino)cyclohexan-1-ol]	1 to 10 nM
O=C1NCCC1Nc1nnc(-c2ccc(C(F)(F)F)cc2OC(F)(F)F)c2cccn12 (centres unmarked) [Compound 124, 3-({1-[2-(trifluoromethoxy)-4-(trifluoromethyl)phenyl]pyrrolo[1,2-d][1,2,4]triazin-4-yl}amino)pyrrolidin-2-one]	1 to 10 nM

Other lines, results leading:

IC50	SMILES
1 to 10 nM	Cc1ccc(-c2nnc(N[C@@H]3CCCN(C)C3)n3cncc23)c(OC(F)F)c1 [Compound 202, 1-[2-(difluoromethoxy)-4-methylphenyl]-N-[(3R)-1-methylpiperidin-3-yl]imidazo[1,5-d][1,2,4]triazin-4-amine]
1 to 10 nM	C[C@]1(O)C[C@@H](Nc2nnc(-c3ccc(Cl)cc3C(F)(F)F)c3cncn23)C1 [Compound 298, (1s,3s)-3-({1-[4-chloro-2-(trifluoromethyl)phenyl]imidazo[1,5-d][1,2,4]triazin-4-yl}amino)-1-methylcyclobutan-1-ol]
< 1 nM	C[C@]1(O)C[C@@H](Nc2nnc(-c3ccc(OC(F)F)cc3OC(F)(F)F)c3cncn23)C1 [Compound 244, (1s,3s)-3-({1-[4-(difluoromethoxy)-2-(trifluoromethoxy)phenyl]imidazo[1,5-d][1,2,4]triazin-4-yl}amino)-1-methylcyclobutan-1-ol]
1 to 10 nM	Cc1ccc(-c2nnc(N[C@@H]3CCCN(C)C3)n3cncc23)c(CC(F)(F)F)c1 [Compound 317, N-[(3R)-1-methylpiperidin-3-yl]-1-[4-methyl-2-(2,2,2-trifluoroethyl)phenyl]imidazo[1,5-d][1,2,4]triazin-4-amine]
10 to 100 nM	COc1ccc(-c2nnc(N[C@H]3C[C@@](C)(CO)C3)n3cncc23)c(OC(F)(F)F)c1 [Compound 342, [(1s,3s)-3-({1-[4-methoxy-2-(trifluoromethoxy)phenyl]imidazo[1,5-d][1,2,4]triazin-4-yl}amino)-1-methylcyclobutyl]methanol]
1 to 10 nM	Cc1cc2c(-c3ccc(C(F)(F)F)cc3C(F)F)nnc(N[C@@H]3CCCN(C)C3)n2n1 [Compound 359, 4-[2-(difluoromethyl)-4-(trifluoromethyl)phenyl]-2-methyl-N-[(3R)-1-methylpiperidin-3-yl]pyrazolo[1,5-d][1,2,4]triazin-7-amine]
10 to 100 nM	O[C@@H]1COCC[C@H]1Nc1nnc(-c2ccc(C(F)(F)F)cc2OC(F)(F)F)c2cncn12 [Compound 322, (3S,4R)-4-({1-[2-(trifluoromethoxy)-4-(trifluoromethyl)phenyl]imidazo[1,5-d][1,2,4]triazin-4-yl}amino)oxan-3-ol]
1 to 10 nM	COc1ccc(-c2nnc(N[C@@H]3C[C@@H](F)CN(C)C3)n3cncc23)c(CC(F)(F)F)c1 [Compound 277, N-[(3R,5R)-5-fluoro-1-methylpiperidin-3-yl]-1-[4-methoxy-2-(2,2,2-trifluoroethyl)phenyl]imidazo[1,5-d][1,2,4]triazin-4-amine]
10 to 100 nM	Cc1ccc(-c2nnc(N[C@@H]3CCCN(C)C3)n3nc(C)cc23)c(C(F)F)c1 [Compound 364, 4-[2-(difluoromethyl)-4-methylphenyl]-2-methyl-N-[(3R)-1-methylpiperidin-3-yl]pyrazolo[1,5-d][1,2,4]triazin-7-amine]
1 to 10 nM	C[C@]1(O)C[C@@H](Nc2nnc(-c3ccc(Cl)cc3OC(F)(F)F)c3cncn23)C1 [Compound 299, (1s,3s)-3-({1-[4-chloro-2-(trifluoromethoxy)phenyl]imidazo[1,5-d][1,2,4]triazin-4-yl}amino)-1-methylcyclobutan-1-ol]
100 to 300 nM	COc1ccc(-c2nnc(NC(C)c3cccnc3)n3cncc23)c(OC(F)(F)F)c1 (centres unmarked) [Compound 232, 1-[4-methoxy-2-(trifluoromethoxy)phenyl]-N-[1-(pyridin-3-yl)ethyl]imidazo[1,5-d][1,2,4]triazin-4-amine]
10 to 100 nM	O=C1NCCC1Nc1nnc(-c2ccc(C(F)(F)F)cc2OC(F)(F)F)c2ccnn12 (centres unmarked) [Compound 393, 3-({4-[2-(trifluoromethoxy)-4-(trifluoromethyl)phenyl]pyrazolo[1,5-d][1,2,4]triazin-7-yl}amino)pyrrolidin-2-one]
1 to 10 nM	O[C@@H]1CCCC[C@H]1Nc1nnc(-c2ccc(C(F)(F)F)cc2C(F)(F)F)c2ccnn12 [Compound 394, (1R,2R)-2-({4-[2,4-bis(trifluoromethyl)phenyl]pyrazolo[1,5-d][1,2,4]triazin-7-yl}amino)cyclohexan-1-ol]
10 to 100 nM	COc1ccc(-c2nnc(N[C@H]3C[C@@](C)(O)C3)n3nc(C)cc23)c(OC(F)(F)F)c1 [Compound 391, (1s,3s)-3-({4-[4-methoxy-2-(trifluoromethoxy)phenyl]-2-methylpyrazolo[1,5-d][1,2,4]triazin-7-yl}amino)-1-methylcyclobutan-1-ol]
10 to 100 nM	CCN1CCC[C@@H](Nc2nnc(-c3ccc(OC)c(OC)c3OC)c3cc(C)nn23)C1 [Compound 370, N-[(3R)-1-ethylpiperidin-3-yl]-2-methyl-4-(2,3,4-trimethoxyphenyl)pyrazolo[1,5-d][1,2,4]triazin-7-amine]
< 1 nM	OC[C@H]1C[C@@H](Nc2nnc(-c3ccc(C(F)(F)F)cc3CC(F)(F)F)c3cncn23)C1 [Compound 264]
1 to 10 nM	CC(Nc1nnc(-c2ccc(C(F)(F)F)cc2C(F)(F)F)c2ccnn12)c1cccc(O)c1 (centres unmarked) [Compound 395, 3-[1-({4-[2,4-bis(trifluoromethyl)phenyl]pyrazolo[1,5-d][1,2,4]triazin-7-yl}amino)ethyl]phenol]
< 1 nM	CN1CCC[C@@H](Nc2nnc(-c3ccc(Br)cc3OC(F)(F)F)c3cncn23)C1 [Compound 312, 1-[4-bromo-2-(trifluoromethoxy)phenyl]-N-[(3R)-1-methylpiperidin-3-yl]imidazo[1,5-d][1,2,4]triazin-4-amine]
1 to 10 nM	CCN1CCC[C@@H](Nc2nnc(-c3ccc(C#N)cc3OC(F)F)c3cc(C)nn23)C1 [Compound 378, 3-(difluoromethoxy)-4-(7-{[(3R)-1-ethylpiperidin-3-yl]amino}-2-methylpyrazolo[1,5-d][1,2,4]triazin-4-yl)benzonitrile]
